The source of these data is the Deep4Chem optical property database.

Several values for one entry are separate records, joined by “and”; a condition that tells them apart may be missing. Identical values can stand only once.

This data set can be described thus: photoluminescence quantum yield (fraction); solvent given as SMILES.

Consider `COc1ccc(N(c2ccc(OC)cc2)c2ccc3ccc4c(B(c5c(C)cc(C)cc5C)c5c(C)cc(C)cc5C)ccc5ccc2c3c54)cc1`, for which the photoluminescence quantum yield by setting is: (in C1CCOC1) 0.19; (in CC(C)=O) 0.026; (in CCCCCC) 1; (in Cc1ccccc1) 0.85; (in ClC(Cl)Cl) 0.67; (in ClCCl) 0.21.

For `C(/C=C/C1=[NH+]c2cccc3cccc1c23)=c1/[nH]c2cccc3cccc1c32`, the photoluminescence quantum yield (in CO) amounted to 0.0013.

For `CC(C)(C)c1ccc(/C=C/c2ccc(N(c3ccc(/C=C/c4ccc(C(C)(C)C)cc4)cc3)c3ccc(-c4nc5ccccc5nc4-c4ccc(N(c5ccc(/C=C/c6ccc(C(C)(C)C)cc6)cc5)c5ccc(/C=C/c6ccc(C(C)(C)C)cc6)cc5)cc4)cc3)cc2)cc1`, for the setting “in C1CCOC1”, the photoluminescence quantum yield was found to be 0.72.

On to `Cc1oc(-c2ccccc2)nc1C(=O)O`, for which the photoluminescence quantum yield is 0.16 (in C1CCCCC1); 0.4 (in CC#N); 0.52 (in CCO); 0.5 (in CCOC(C)=O); 0.51 (in O).

For the molecule `C1=Cc2ccccc2C(=Cc2ccc(C=C3c4ccccc4C=Cc4ccccc43)cc2)c2ccccc21`, for the setting “in C1CCOC1”, the photoluminescence quantum yield worked out at 5e-05.

The molecule `Cc1ccc(-c2nc(-c3ccc(O)cc3)[nH]c2-c2ccc(C)cc2)cc1` showed a photoluminescence quantum yield (in CO) of 0.2.

In turn, `F[B-]1(F)n2c(Cl)c(Cl)c(Br)c2C(Cl)=C2C(Br)=C(Cl)C(Cl)=[N+]21` had a photoluminescence quantum yield (in ClCCl) of 0.18.

`COc1ccccc1-c1nc(-c2ccccc2)c(-c2ccccc2)[nH]1` returned a photoluminescence quantum yield (in CO) of 0.29.

Turning to `Cn1c2ccccc2c(=O)c2ccccc21`, the photoluminescence quantum yield (in CS(C)=O) came to 0.65.

As to `O=S1(=O)C(c2cccs2)=C(c2cccs2)c2ccccc21`, under “in C1CCOC1”, the photoluminescence quantum yield is 0.006.

Under “in ClCCl”, `O=[N+]([O-])c1ccc([N+]2=Cc3ccc4ccccc4c3O[B-]2(F)F)cc1` yielded a photoluminescence quantum yield of 0.9.

As for `CC(C)(C)NC(=O)c1ccc(-c2cc3ccccc3o2)c2ccc3c4ccccc4c4ccccc4c3c12`, the photoluminescence quantum yield (in ClCCl) came out at 0.44.

In turn, `O=C1c2ccccc2-c2ccc(N3CCN(c4ccccc4)CC3)c3cccc1c23` showed a photoluminescence quantum yield (in C1CCCCC1) of 0.424; a photoluminescence quantum yield (in C1CCOC1) of 0.123; a photoluminescence quantum yield (in C1COCCO1) of 0.42; a photoluminescence quantum yield (in CC1COC(=O)O1) of 0.009; a photoluminescence quantum yield (in CC#N) of 0.005; a photoluminescence quantum yield (in CC(C)=O) of 0.011. The photoluminescence quantum yield by setting is: (in CCCCCCCCO) 0.018; (in CCCCCO) 0.017; (in CCCCO) 0.014; (in CCCO) 0.021; (in CCO) 0.007; (in CCOC(C)=O) 0.108. The photoluminescence quantum yield was found to be 0.005 (in CN(C)C=O); 0.004 (in CO); 0.004 (in CS(C)=O); 0.431 (in Cc1ccccc1); 0.348 (in ClC(Cl)Cl).

On to `CN(C)c1ccc2nc(-c3ccc(C=O)cc3)sc2c1`, for which the photoluminescence quantum yield was 0.8 (in C1CCCCC1), 0.66 (in CC#N), 0.1 (in CO) and 0.85 (in ClC(Cl)Cl).

`COc1ccc(C#Cc2nc3ccccc3nc2-c2cn(C)c3ccccc23)cc1` registered a photoluminescence quantum yield (in C1CCOC1) of 0.19; a photoluminescence quantum yield (in CC#N) of 0.13; a photoluminescence quantum yield (in CC(C)=O) of 0.16; a photoluminescence quantum yield (in CC(C)O) of 0.02; a photoluminescence quantum yield (in CCO) of 0.01; a photoluminescence quantum yield (in CCOC(C)=O) of 0.17. Also, the photoluminescence quantum yield runs as follows: (in CO) 0.01; (in Cc1ccccc1) 0.3; (in ClCCl) 0.19.

With `CCCCCCC1(CCCCCC)c2cc(-c3nc(-c4ccc5c(c4)C(CCCCCC)(CCCCCC)c4cc(N6c7ccccc7Sc7ccccc76)ccc4-5)nc(-c4ccc5c(c4)C(CCCCCC)(CCCCCC)c4cc(N6c7ccccc7Sc7ccccc76)ccc4-5)n3)ccc2-c2ccc(N3c4ccccc4Sc4ccccc43)cc21`, the photoluminescence quantum yield reads like this: (in C1CCOC1) 0.01; (in CCCCCC) 0.04; (in Cc1ccccc1) 0.02; (in ClCCl) 0.003.

`F[B-]1(F)n2c(Cl)ccc2C(c2c(Cl)cccc2Cl)=C2C=CC(NCc3ccccc3)=[N+]21`: the photoluminescence quantum yield by setting is: (in CC#N) 0.76; (in CCCCCC) 0.82; (in CCOC(C)=O) 0.67; (in CO) 0.72; (in ClCCl) 0.8.

With `CCCCCCOc1ccc2ccc3oc(=O)cc4cc(OCCCCCC)c1c2c43`, the photoluminescence quantum yield (in CC1CCCO1) came to 0.83.

On to `N#Cc1cc(C#N)c(-c2ccc(N(c3ccccc3)c3ccccc3)cc2)cc1-c1ccc(N(c2ccccc2)c2ccccc2)cc1`, for which the photoluminescence quantum yield (in C1CCCCC1) was 0.75.

Take `CN(C)c1ccc(C(=O)Nc2ccc([N+](=O)[O-])cc2)cc1`: the photoluminescence quantum yield was determined as 0.0001 (in C1CCCCC1), 0.0003 (in C1CCOC1), 0.0002 (in CC#N) and 0.0006 (in CCOCC).

`COc1ccc(-c2cnc(/C=C/c3ccc(C#N)cc3)o2)cc1OC` displayed a photoluminescence quantum yield (in ClCCl) of 0.38.

For `CC(=O)c1c(N[C@@H](Cc2ccccc2)C(=O)O)c2ccc(N(C)C)cc2oc1=O`, the photoluminescence quantum yield (in ClCCl) is 0.0026.

Turning to `CC(C)(C)c1ccc2oc3nc4oc5ccc(-n6c7ccccc7c7cc(-n8c9ccccc9c9ccccc98)ccc76)cc5c4cc3c2c1`, the photoluminescence quantum yield (in ClC(Cl)Cl) was 0.15.

Consider `C[Si](C)(C)C#CC(C#C[Si](C)(C)C)=Cc1ccc(C=C(C#C[Si](C)(C)C)C#C[Si](C)(C)C)cc1`, for which, for the setting “in ClC(Cl)Cl”, the photoluminescence quantum yield is 0.01 and 0.03.

Molecule `COc1ccccc1C1=[N+]2C(=Cc3c4cc5ccccc5cc4c(-c4ccccc4OC)n3[B-]2(F)F)c2cc3ccccc3cc21` registered a photoluminescence quantum yield (in C1CCOC1) of 0.29.

Turning to `CC(C)(C)c1cc2c3c(c1)-c1cccc4c1N(B3N1c3ccccc3Sc3cccc-2c31)c1ccccc1S4`, the photoluminescence quantum yield (in C1CCOC1) came to 0.05.

As to `Cc1cc(C)c([B-]2(c3c(C)cc(C)cc3C)[O+]=P(c3ccccc3)(c3ccccc3)c3cc(-c4ccc(C(C)(C)C)cc4)sc3-c3sc(-c4ccc(C(C)(C)C)cc4)cc32)c(C)c1`, the photoluminescence quantum yield (in C1CCOC1) came to 0.16.

`O=[N+]([O-])c1ccc(C#Cc2ccc3ccccc3c2)cc1`: the photoluminescence quantum yield worked out at 0.005 (in ClC(Cl)Cl) and 0.006 (in ClCCl).

`Nc1nc2ccccc2[n+]([O-])n1`: the photoluminescence quantum yield (in CC#N) amounted to 0.169 and the photoluminescence quantum yield (in O) came to 0.0367.

Where the note is “in CCCCCCC”, `c1ccc2cc3cc4c(cc3cc2c1)-c1cccc2cccc-4c12` had a photoluminescence quantum yield of 0.58.

In the case of `O=Cc1cc(O)ccc1O`, the photoluminescence quantum yield is, setting by setting: (in C1CCOC1) 0.0001; (in C1COCCO1) 0.0001; (in CC#N) 0.0001; (in CC(C)=O) 0.01; (in CCCO) 0.03; (in CCO) 0.04. The photoluminescence quantum yield amounted to 0.06 (in CN(C)C=O); 0.14 (in CN(C)P(=O)(N(C)C)N(C)C); 0.14 (in CNC=O); 0.0001 (in CO); 0.17 (in CS(C)=O); 0.07 (in NC=O).

As to `COc1c2ccccc2c(OC)c2c(C#Cc3ccccc3)c3cc4sccc4cc3c(C#Cc3ccccc3)c12`, the photoluminescence quantum yield by setting is: (in C1CCOC1) 0.13; (in Cc1ccccc1) 0.1; (in ClCCl) 0.11.

Regarding `CC/[NH+]=c1\cc2oc3cc(NCCN)c4ccccc4c3nc-2cc1C`, the photoluminescence quantum yield runs as follows: (in CCO) 0.27; (in O) 0.18.

Take `C(=C\c1c2ccccc2cc2ccccc12)/c1ccc2ccccc2n1`: the photoluminescence quantum yield (in CC1CCCCC1) came out at 0.41 and the photoluminescence quantum yield (in CC#N) stood at 0.04.

For the setting “in ClCCl”, `O=c1c2cccc3cccc(c32)c2nc3c(F)c(F)c(F)c(F)c3n12` came in with a photoluminescence quantum yield of 0.82.

As to `COc1ccc2c(-c3nc(-c4ccccc4F)no3)cc(=O)oc2c1`, the photoluminescence quantum yield (in CCO) was 0.57 and the photoluminescence quantum yield (in ClC(Cl)Cl) stood at 0.25.

`FC(F)(F)C(F)(F)C(F)(F)C(F)(F)C(F)(F)C(F)(F)CCOc1nnc(Cl)nn1`: the photoluminescence quantum yield is 0.4 (in ClCCl) and 0.26 (in OCC(F)(F)F).

For the molecule `N#Cc1nn(-c2ccc(Cl)cc2)nc1N1CCCC1`, where the note is “in CC#N”, the photoluminescence quantum yield turned out to be 0.829.

In turn, `N#CC(C#N)=Cc1ccc(-c2cccc(-c3nc4ccccc4s3)c2O)s1` returned a photoluminescence quantum yield (in CCO) of 0.0956, a photoluminescence quantum yield (in ClCCl) of 0.152 and a photoluminescence quantum yield (in O) of 0.01.

As for `CCCCCCOC(=O)/C=C/C1=CC2=C(c3c(C)cc(C)cc3C)c3cc(/C=C/C(=O)OCCCCCC)cn3[B-](F)(F)[N+]2=C1`, where the note is “in ClCCl”, the photoluminescence quantum yield is 0.68.

As to `CCOC(=O)CN(CC(=O)OCC)c1ccc(-c2cc(-c3ccccn3)nc(-c3ccccn3)c2)cc1`, the photoluminescence quantum yield was 0.37 (in CC#N); 0.48 (in CCOC(C)=O); 0.31 (in CN(C)C=O); 0.34 (in CS(C)=O); 0.5 (in c1ccccc1).

With `COc1ccc(C2=N/C(=C\c3ccccc3)C(=O)O2)cc1OC`, the photoluminescence quantum yield (in C1COCCO1) turned out to be 0.02.

Under “in ClC(Cl)Cl”, `C[Si](C)(C)C#C[Si](c1c2ccccc2cc2ccccc12)(c1c2ccccc2cc2ccccc12)c1c2ccccc2cc2ccccc12` registered a photoluminescence quantum yield of 0.04.

As for `Clc1nc(Cl)nc(Nc2ccc3cc4ccccc4cc3c2)n1`, the photoluminescence quantum yield runs as follows: (in C1COCCO1) 0; (in CC#N) 0; (in CCCCOCCCC) 0; (in CCOC(C)=O) 0.

Under “in ClCCl”, `Cc1cccc2nc(-c3ccc(-c4cc(=O)cc(-c5ccccc5)o4)cc3)c(NC3CCCCC3)n12` registered a photoluminescence quantum yield of 0.032.
